Laboratory results reported in ChEMBL document CHEMBL1201862, “PubChem BioAssay data set” (2004).
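Compound exposure: 48 hours, 5 concentrations, 96-well plates. GI50 marks 50% less growth.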 Activity calls are given as the source filed them. Cut-off read from the data, not from the text of the source: active = GI50 up to about 1.1 µM and inactive = higher.

Key:
Experiment in all cases: inhibition of tumour cell growth, NCI panel, 48 h
786-0 = tested on: 786-0
A498 = tested on: A498
ACHN = tested on: ACHN
BT-549 = tested on: BT-549
COLO 205 = tested on: COLO 205
EKVX = tested on: EKVX
HOP-62 = tested on: HOP-62
MCF7 = tested on: MCF7
NCI-H226 = tested on: NCI-H226
OVCAR-3 = tested on: OVCAR-3
SF-295 = tested on: SF-295
SF-539 = tested on: SF-539
SK-MEL-28 = tested on: SK-MEL-28
SK-OV-3 = tested on: SK-OV-3
U-251 = tested on: U-251
UACC-257 = tested on: UACC-257
NCI-H522 = tested on: NCI-H522

Measured: GI50

O=C(O)C(=O)Cc1ccc2c(c1)OCO2
inactive: 786-0 > 100 µM | A498 > 100 µM | ACHN > 100 µM | BT-549 > 100 µM | COLO 205 > 100 µM | EKVX > 100 µM | HOP-62 > 100 µM | MCF7 > 100 µM | NCI-H226 65.5 µM | OVCAR-3 > 100 µM | SF-295 > 100 µM | SF-539 > 100 µM | SK-MEL-28 > 100 µM | SK-OV-3 > 100 µM | U-251 > 100 µM | UACC-257 > 100 µM

O=C(/C=C/c1ccc2c(c1)OCO2)NCc1ccco1
inactive: 786-0 > 100 µM | A498 84.3 µM | ACHN > 100 µM | BT-549 25.9 µM | COLO 205 > 100 µM | EKVX 71.6 µM | HOP-62 > 100 µM | MCF7 39.7 µM | NCI-H226 > 100 µM | OVCAR-3 82.2 µM | SF-295 > 100 µM | SF-539 64.9 µM | SK-MEL-28 > 100 µM | SK-OV-3 > 100 µM | U-251 > 100 µM | UACC-257 > 100 µM

CCNC1=C(NC(=O)c2ccccc2)C(=O)c2ccccc2C1=O
inactive: 786-0 > 100 µM | BT-549 90.4 µM | COLO 205 16.6 µM | HOP-62 66.2 µM | MCF7 32.1 µM | NCI-H226 27.9 µM | NCI-H522 11.2 µM | OVCAR-3 25.1 µM | SF-295 32.4 µM | SF-539 48.8 µM | SK-MEL-28 39.3 µM | SK-OV-3 24 µM | U-251 33 µM | UACC-257 23.4 µM

O=C(O)c1nc2ccc(C(F)(F)F)cc2nc1NCc1ccc(F)cc1
inactive: 786-0 14.9 µM | A498 23.7 µM | ACHN 27.2 µM | BT-549 25.9 µM | COLO 205 21.5 µM | EKVX 25.6 µM | HOP-62 19.1 µM | MCF7 22.9 µM | NCI-H226 39.5 µM | OVCAR-3 8.34 µM | SF-295 23.5 µM | SF-539 20.1 µM | SK-MEL-28 40.8 µM | SK-OV-3 31.7 µM | U-251 16.7 µM | UACC-257 22.4 µM

Cc1cccc(Br)[n+]1[O-]
inactive: 786-0 > 100 µM | ACHN > 100 µM | BT-549 > 100 µM | COLO 205 > 100 µM | EKVX > 100 µM | HOP-62 > 100 µM | MCF7 > 100 µM | NCI-H226 96.4 µM | NCI-H522 > 100 µM | OVCAR-3 > 100 µM | SF-295 > 100 µM | SF-539 > 100 µM | SK-MEL-28 > 100 µM | SK-OV-3 > 100 µM | U-251 > 100 µM | UACC-257 > 100 µM

O=C1CC2(CCNCC2)C(=O)N1N1CCCC1
inactive: 786-0 > 100 µM | ACHN > 100 µM | BT-549 > 100 µM | COLO 205 > 100 µM | EKVX > 100 µM | HOP-62 > 100 µM | MCF7 > 100 µM | NCI-H226 > 100 µM | NCI-H522 > 100 µM | OVCAR-3 > 100 µM | SF-295 > 100 µM | SF-539 > 100 µM | SK-OV-3 > 100 µM | U-251 > 100 µM | UACC-257 > 100 µM

COc1ccc2c(c1)N=C1CSC(c3cc([N+](=O)[O-])ccc3Cl)N1C2 (stereo not drawn)
inactive: 786-0 26.2 µM | ACHN 20 µM | BT-549 26.2 µM | COLO 205 30.1 µM | EKVX 18.3 µM | HOP-62 32.1 µM | MCF7 14.8 µM | NCI-H226 62.8 µM | NCI-H522 21.5 µM | SF-295 30.5 µM | SF-539 28.5 µM | SK-MEL-28 17.2 µM | SK-OV-3 25.2 µM | U-251 25.6 µM | UACC-257 15.8 µM
